The values that follow come from PubChem BioAssay (NCI).

Each structure is given as a SMILES string.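 1) Cells in 96-well plates. 2) Compound, 48 h, 5 concentrations. 3) Linear interpolation between surrounding doses. 4) Unreached endpoint = highest concentration. GI50 = concentration required for 50% inhibition of growth. The concentration for full growth arrest is given as TGI.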

Common to all, as to assay: inhibition of tumour cell growth, NCI panel, 48 h
Assay [1] has as its system SNB-75 CNS.
Assay [2] has as its system SF-539 CNS.
Assay [3] has as its system KM12 colon.
Assay [4] concerns UACC-257 melanoma.
Assay [5] deals with 786-0 renal.
Assay [6] deals with M14 melanoma.
For assay [7], the system named is HS 578T breast.
In assay [8] the test system is T-47D breast.

Take `CCn1c(-c2nonc2N)nc2c(C#CCN)ncc(OCCCN)c21`: the GI50 in assay [1] is above 24.2 µM; in assay [2] it was above 25 µM; in assay [3], above 25 µM; in assay [4], above 25 µM; in assay [5], above 25 µM; in assay [6], above 25 µM. Further, the GI50 in assay [7] and in assay [8] was above 25 µM in each case. For the same compound, the TGI in assay [1], in assay [2], in assay [3], in assay [4], in assay [5] and in assay [6] was above 25 µM each time. For the same compound, the TGI in assay [7] and in assay [8] was above 25 µM each time.
As to `COc1cc2ncn(-c3cc(OCc4ccccc4Cl)c(C(N)=O)s3)c2cc1OC`, the GI50 was 0.707 µM in assay [1]; 0.249 µM in assay [2]; 0.0806 µM in assay [3]; 0.873 µM in assay [5]; 0.164 µM in assay [6]; 0.609 µM in assay [7]. In addition, in assay [8], the GI50 was 3.78 µM. For the same compound, the TGI is 6.47 µM in assay [1]; 4.31 µM in assay [2]; above 11.8 µM in assay [3]; above 25 µM in assay [4]; above 22.8 µM in assay [5]; above 25 µM in assay [6]. Besides, the TGI in assay [7] is 5.77 µM; in assay [8], above 25 µM.
Turning to `O=C(Nc1nc2ccccc2s1)OCC(F)(F)F`, the GI50 in assay [1], in assay [2], in assay [3], in assay [4], in assay [5] and in assay [6] was above 100 µM in each case. The GI50 in assay [7] and in assay [8] was above 100 µM each time. In addition, the TGI in assay [1], in assay [2], in assay [3], in assay [4], in assay [5] and in assay [6] was above 100 µM throughout. For the same compound, the TGI in assay [7] and in assay [8] was above 100 µM throughout.
As to `Oc1ccccc1/C=N/Nc1ccc2ccccc2n1`, the GI50 was 2.01 µM in assay [1]; 3.5 µM in assay [2]; 3.24 µM in assay [3]; 3.14 µM in assay [4]; 5.81 µM in assay [5]; 3.65 µM in assay [6]. Also, the GI50 in assay [7] was 6.87 µM; in assay [8], 3.83 µM. Moreover, the TGI is 20.4 µM in assay [1]; 59.4 µM in assay [2]; above 100 µM in assay [3]; 9.57 µM in assay [4]; above 100 µM in assay [5]; above 100 µM in assay [6]. For the same compound, the TGI in assay [7] was 76.3 µM; in assay [8], above 100 µM.
In the case of `COc1cc(-n2cc(-c3ccc(Cl)c(Cl)c3)nc2SCc2ccccc2)cc(OC)c1OC`, the GI50 in assay [1], in assay [2], in assay [3], in assay [4], in assay [5] and in assay [6] was above 100 µM throughout. Besides, the GI50 in assay [7] and in assay [8] was above 100 µM throughout. Further, the TGI in assay [1], in assay [2], in assay [3], in assay [4], in assay [5] and in assay [6] was above 100 µM throughout. Moreover, the TGI in assay [7] and in assay [8] was above 100 µM each time.
With `N/C(CC(=O)Nc1cc(C(F)(F)F)ccc1Cl)=N\O`, the TGI in assay [1], in assay [2], in assay [3], in assay [4], in assay [5] and in assay [6] was above 100 µM in each case. Moreover, the TGI in assay [7] and in assay [8] was above 100 µM throughout.
Turning to `CC(C)(C)OC(=O)NC(Cc1ccccc1)C(=O)OCN1C(=O)C2C3C=CC(C2C1=O)C1C2C(=O)N(COC(=O)C(Cc4ccccc4)NC(=O)OC(C)(C)C)C(=O)C2C31` (stereo unspecified), the TGI in assay [1] was 58.9 µM; in assay [2] it was above 100 µM; in assay [3], above 100 µM; in assay [4] it was above 100 µM; in assay [5], above 100 µM; in assay [6], above 100 µM. For the same compound, the figures for the TGI in assay [7] and in assay [8] were 54.3 µM and above 100 µM, respectively.
Take `CCN1CCN(c2nc(NCCCNc3ccnc4cc(Cl)ccc34)c3ccccc3n2)CC1`: the GI50 in assay [1] was 1.78 µM; in assay [2], 1.71 µM; in assay [3], 2.74 µM; in assay [4], 2.01 µM; in assay [5], 2.18 µM; in assay [6], 1.86 µM. Further, the GI50 in assay [7] is 2.24 µM; in assay [8] it was 1.87 µM. In addition, the TGI in assay [1] was 6.88 µM; in assay [2] it was 3.34 µM; in assay [3] it was 11.4 µM; in assay [4], 3.97 µM; in assay [5], 5.82 µM; in assay [6] it was 3.63 µM. In addition, the TGI in assay [7] is 6.22 µM; in assay [8], 5.5 µM.
